The structures appear in SMILES notation. pIC50: −log10 of the molar value.

This note sets out measurements from ChEMBL document CHEMBL4732205, “Structure-based optimization identified novel furyl-containing 2,4-diarylaminopyrimidine analogues as ALK/ROS1 dual inhibitors with anti-mutation effects” (Eur J Med Chem, 2021).

For one experiment, the system named is NCI-H2228. The experiment in a line: Antiproliferative activity against human NCI-H2228 cells assessed as reduction in cell growth incubated for 72 hrs by MTT assay. It counts as functional, cell-based. The following applies: NCI-H2228, 72 h.
A further experiment has as its system MCF7. As to the kind of experiment: Antiproliferative activity against human MCF7 cells assessed as reduction in cell growth incubated for 72 hrs by MTT assay. The note with it: MCF7, 72 h. It counts as functional, cell-based. On the technique in general: Formazan colour is commonly taken as a measure of viable cells.
Another experiment has as its system A549. As to the kind of experiment: Antiproliferative activity against human A549 cells assessed as reduction in cell growth incubated for 72 hrs by MTT assay. It counts as functional, cell-based. The following applies: A549, 72 h.
A further experiment has as its system KARPAS-299. The experiment in a line: Antiproliferative activity against human KARPAS-299 cells assessed as reduction in cell growth incubated for 72 hrs by MTT assay. It counts as functional, cell-based. The following applies: KARPAS-299, 72 h.
Experiment [1] has as its target Epidermal growth factor receptor (Homo sapiens, UniProt P00533). As to the kind of experiment: Inhibition of recombinant human N-terminal GST-tagged EGFR (669 to 1210 residues) expressed in baculovirus expression system using Srctide as substrate incubated for 1 hr by mobility shift assay.
The target in experiment [2] is ALK tyrosine kinase receptor (Homo sapiens, UniProt Q9UM73, G1202R). As to the kind of experiment: Inhibition of recombinant human N-terminal GST-tagged ALK G1202R mutant (1058 to 1620 residues) expressed in baculovirus expression system using Srctide as substrate incubated for 1 hr by mobility shift assay.
Sequence of ALK tyrosine kinase receptor (Homo sapiens, UniProt Q9UM73, G1202R) (Q9UM73 19-1620 G1202R limits assumed): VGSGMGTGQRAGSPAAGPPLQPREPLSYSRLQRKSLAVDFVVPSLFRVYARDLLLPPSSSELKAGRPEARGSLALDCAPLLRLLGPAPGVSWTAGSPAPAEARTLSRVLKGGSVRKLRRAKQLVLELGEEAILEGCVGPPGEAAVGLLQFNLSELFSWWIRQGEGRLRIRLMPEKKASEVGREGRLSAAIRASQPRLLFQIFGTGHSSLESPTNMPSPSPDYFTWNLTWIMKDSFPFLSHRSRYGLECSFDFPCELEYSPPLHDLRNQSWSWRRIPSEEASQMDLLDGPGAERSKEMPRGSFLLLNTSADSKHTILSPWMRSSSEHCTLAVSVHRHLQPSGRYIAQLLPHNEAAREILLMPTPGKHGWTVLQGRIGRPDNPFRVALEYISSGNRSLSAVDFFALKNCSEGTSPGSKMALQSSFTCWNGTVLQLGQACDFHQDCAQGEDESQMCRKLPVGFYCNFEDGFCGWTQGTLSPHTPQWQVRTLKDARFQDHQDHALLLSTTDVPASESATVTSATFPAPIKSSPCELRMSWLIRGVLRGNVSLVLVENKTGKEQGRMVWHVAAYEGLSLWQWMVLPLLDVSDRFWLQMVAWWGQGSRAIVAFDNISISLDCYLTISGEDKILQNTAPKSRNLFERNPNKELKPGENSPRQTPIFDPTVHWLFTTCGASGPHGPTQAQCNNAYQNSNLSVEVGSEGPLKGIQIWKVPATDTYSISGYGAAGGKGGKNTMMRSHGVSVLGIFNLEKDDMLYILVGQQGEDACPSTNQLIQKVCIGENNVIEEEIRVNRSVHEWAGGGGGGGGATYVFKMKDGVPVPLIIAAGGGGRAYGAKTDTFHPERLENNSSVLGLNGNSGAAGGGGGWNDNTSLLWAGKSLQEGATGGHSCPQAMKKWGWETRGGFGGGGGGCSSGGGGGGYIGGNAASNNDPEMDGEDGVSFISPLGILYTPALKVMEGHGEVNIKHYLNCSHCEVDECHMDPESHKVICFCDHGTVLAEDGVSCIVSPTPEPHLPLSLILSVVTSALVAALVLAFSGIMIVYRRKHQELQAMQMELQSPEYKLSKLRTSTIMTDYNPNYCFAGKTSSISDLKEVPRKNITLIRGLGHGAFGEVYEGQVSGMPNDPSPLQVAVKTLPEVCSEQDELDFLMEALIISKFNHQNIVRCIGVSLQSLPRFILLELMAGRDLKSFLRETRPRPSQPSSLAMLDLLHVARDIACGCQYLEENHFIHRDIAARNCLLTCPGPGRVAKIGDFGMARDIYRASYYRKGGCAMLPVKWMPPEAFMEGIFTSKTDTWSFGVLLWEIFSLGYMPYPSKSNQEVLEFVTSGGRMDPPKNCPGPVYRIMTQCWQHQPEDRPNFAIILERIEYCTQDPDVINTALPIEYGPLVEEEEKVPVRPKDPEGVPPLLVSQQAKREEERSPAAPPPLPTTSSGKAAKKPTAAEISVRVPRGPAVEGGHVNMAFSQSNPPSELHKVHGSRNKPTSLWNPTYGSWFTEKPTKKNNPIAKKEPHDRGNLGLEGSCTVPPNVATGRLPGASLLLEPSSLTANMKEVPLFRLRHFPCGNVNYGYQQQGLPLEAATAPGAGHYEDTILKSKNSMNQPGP
The target in experiment [3] is ALK tyrosine kinase receptor (Homo sapiens, UniProt Q9UM73). As to the kind of experiment: Inhibition of recombinant human N-terminal GST-tagged ALK (1058 to 1620 residues) expressed in baculovirus expression system using Srctide as substrate incubated for 1 hr by mobility shift assay.
Sequence of ALK tyrosine kinase receptor (Homo sapiens, UniProt Q9UM73) (Q9UM73 whole entry, the tested form may be a part): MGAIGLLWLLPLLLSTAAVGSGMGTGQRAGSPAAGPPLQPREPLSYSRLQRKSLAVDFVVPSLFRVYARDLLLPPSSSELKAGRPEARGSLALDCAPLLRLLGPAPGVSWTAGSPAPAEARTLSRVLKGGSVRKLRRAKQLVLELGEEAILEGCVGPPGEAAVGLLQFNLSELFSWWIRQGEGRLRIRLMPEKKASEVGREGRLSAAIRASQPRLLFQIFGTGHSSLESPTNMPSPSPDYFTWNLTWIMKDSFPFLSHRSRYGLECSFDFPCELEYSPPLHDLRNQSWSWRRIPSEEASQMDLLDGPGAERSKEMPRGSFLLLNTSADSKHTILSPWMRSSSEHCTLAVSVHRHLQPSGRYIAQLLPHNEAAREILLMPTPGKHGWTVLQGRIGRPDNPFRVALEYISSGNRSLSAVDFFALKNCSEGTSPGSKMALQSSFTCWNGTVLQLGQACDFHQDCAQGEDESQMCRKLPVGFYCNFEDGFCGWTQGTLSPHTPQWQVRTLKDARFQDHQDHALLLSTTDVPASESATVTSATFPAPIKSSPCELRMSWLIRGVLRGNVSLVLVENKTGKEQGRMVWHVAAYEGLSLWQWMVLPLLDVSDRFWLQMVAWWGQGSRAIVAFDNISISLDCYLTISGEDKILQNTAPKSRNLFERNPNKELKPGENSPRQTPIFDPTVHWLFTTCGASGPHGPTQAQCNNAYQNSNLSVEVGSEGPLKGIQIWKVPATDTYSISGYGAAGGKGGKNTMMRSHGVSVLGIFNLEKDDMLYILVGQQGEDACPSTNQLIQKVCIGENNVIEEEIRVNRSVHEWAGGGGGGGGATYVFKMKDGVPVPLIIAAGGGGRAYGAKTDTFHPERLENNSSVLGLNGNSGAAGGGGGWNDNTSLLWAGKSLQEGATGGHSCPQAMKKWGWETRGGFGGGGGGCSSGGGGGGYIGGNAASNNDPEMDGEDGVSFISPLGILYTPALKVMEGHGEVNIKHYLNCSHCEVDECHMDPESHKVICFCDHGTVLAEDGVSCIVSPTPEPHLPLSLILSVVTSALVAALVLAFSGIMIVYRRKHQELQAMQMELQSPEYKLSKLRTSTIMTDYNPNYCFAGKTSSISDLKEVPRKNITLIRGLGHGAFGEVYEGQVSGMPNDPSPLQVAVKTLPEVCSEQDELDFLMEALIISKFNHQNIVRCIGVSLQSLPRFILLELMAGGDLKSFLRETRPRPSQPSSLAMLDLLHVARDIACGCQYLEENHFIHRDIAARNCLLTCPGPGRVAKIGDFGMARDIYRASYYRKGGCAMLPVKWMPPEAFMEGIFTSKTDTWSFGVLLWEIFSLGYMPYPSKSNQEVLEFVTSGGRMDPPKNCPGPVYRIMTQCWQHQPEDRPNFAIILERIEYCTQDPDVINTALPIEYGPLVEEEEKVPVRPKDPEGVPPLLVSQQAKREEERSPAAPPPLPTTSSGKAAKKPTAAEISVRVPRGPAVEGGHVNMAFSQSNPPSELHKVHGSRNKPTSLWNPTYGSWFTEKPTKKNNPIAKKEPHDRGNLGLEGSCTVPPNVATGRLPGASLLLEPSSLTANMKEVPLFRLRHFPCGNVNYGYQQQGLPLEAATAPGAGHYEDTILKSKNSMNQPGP
Experiment [4] concerns the target Proto-oncogene tyrosine-protein kinase ROS (Homo sapiens, UniProt P08922). The experiment in a line: Inhibition of recombinant human N-terminal GST-tagged ROS1 (1883 to 2347 residues) expressed in baculovirus expression system using IRS1 as substrate incubated for 1 hr by mobility shift assay.
Experiment [5] addresses ALK tyrosine kinase receptor (Homo sapiens, UniProt Q9UM73, L1196M). As to the kind of experiment: Inhibition of recombinant human N-terminal GST-tagged ALK L1196M mutant (1058 to 1620 residues) expressed in baculovirus expression system using Srctide as substrate incubated for 1 hr by mobility shift assay.

Sequence of Epidermal growth factor receptor (P00533 whole entry, the tested form may be a part): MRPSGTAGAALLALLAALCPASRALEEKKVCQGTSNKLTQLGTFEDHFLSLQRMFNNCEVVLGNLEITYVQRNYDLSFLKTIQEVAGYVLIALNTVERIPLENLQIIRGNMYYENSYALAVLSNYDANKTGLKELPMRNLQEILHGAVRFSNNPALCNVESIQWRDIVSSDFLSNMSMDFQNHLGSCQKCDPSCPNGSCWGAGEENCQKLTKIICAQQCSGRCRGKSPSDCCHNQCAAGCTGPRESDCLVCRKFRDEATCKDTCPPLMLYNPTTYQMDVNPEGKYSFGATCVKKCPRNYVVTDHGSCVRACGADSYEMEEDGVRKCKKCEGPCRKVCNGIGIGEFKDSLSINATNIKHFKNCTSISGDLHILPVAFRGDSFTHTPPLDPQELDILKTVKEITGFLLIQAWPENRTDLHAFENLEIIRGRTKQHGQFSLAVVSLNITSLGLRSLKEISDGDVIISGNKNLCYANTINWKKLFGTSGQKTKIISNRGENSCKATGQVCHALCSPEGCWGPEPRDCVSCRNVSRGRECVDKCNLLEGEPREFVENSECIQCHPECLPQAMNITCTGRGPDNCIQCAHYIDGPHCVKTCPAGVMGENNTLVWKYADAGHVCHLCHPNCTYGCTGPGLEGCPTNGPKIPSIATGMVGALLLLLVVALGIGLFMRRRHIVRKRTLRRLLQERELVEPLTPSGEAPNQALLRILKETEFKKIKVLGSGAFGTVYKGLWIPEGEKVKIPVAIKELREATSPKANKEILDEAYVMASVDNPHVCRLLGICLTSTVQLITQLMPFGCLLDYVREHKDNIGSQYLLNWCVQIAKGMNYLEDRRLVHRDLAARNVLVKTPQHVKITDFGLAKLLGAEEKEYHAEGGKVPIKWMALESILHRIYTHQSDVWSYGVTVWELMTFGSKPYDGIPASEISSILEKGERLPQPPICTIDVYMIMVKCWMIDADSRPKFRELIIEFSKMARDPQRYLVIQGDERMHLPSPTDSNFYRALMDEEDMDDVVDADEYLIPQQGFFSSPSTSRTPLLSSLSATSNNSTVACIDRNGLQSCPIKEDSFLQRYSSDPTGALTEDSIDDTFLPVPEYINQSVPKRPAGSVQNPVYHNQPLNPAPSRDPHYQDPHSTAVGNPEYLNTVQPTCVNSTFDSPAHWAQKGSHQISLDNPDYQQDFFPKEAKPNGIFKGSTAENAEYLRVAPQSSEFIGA

Broadly, the pIC50 is the IC50 on a negative log10 scale, so that one unit is a factor of ten. Regarding `COc1cc(NCc2ccc(CN3CCC(C)CC3)o2)ccc1Nc1ncc(Cl)c(Nc2ccccc2NS(C)(=O)=O)n1`, the pIC50 in the experiment on NCI-H2228 was 6.28; with MCF7, less than 5.00; in the experiment with A549, less than 5.00; with KARPAS-299, 6.21.
On to `COc1cc(NCc2ccc(CN3CCCCC3)o2)ccc1Nc1ncc(Cl)c(Nc2ccccc2NS(C)(=O)=O)n1`, for which the pIC50 was 6.46 in the experiment with NCI-H2228, less than 5.00 with MCF7, 5.63 with A549 and 6.55 with KARPAS-299.
With `Cc1cc(Nc2ncc(Cl)c(Nc3ccccc3S(=O)(=O)C(C)C)n2)c(OC(C)C)cc1C1CCNCC1` [CERITINIB], the pIC50 in the experiment with MCF7 was less than 5.00; in the experiment on KARPAS-299, 7.10.
Turning to `COc1cc(NCc2ccc(CN3CCOCC3)o2)ccc1Nc1ncc(Cl)c(Nc2ccccc2NS(C)(=O)=O)n1`, the pIC50 in the experiment with NCI-H2228 was 6.49; in the experiment on MCF7, less than 5.00; in the experiment with A549, less than 5.00; in the experiment with KARPAS-299, 6.64.
With `CCN(CC)Cc1ccc(CSc2ccc(Nc3ncc(Cl)c(Nc4ccccc4NS(C)(=O)=O)n3)c(OC)c2)o1`, the pIC50 was 6.47 in the experiment on NCI-H2228, less than 5.00 in the experiment on MCF7, less than 5.00 with A549 and 6.74 in the experiment on KARPAS-299.
For the molecule `COc1cc(NCc2ccco2)ccc1Nc1ncc(Cl)c(Nc2ccccc2NC(C)=O)n1`, the pIC50 in the experiment on NCI-H2228 is 5.45; in the experiment with MCF7, less than 5.00; with A549 it was less than 5.00; in the experiment with KARPAS-299 it was 5.61.
Take `COc1cc(SCc2ccc(CN3CCSCC3)o2)ccc1Nc1ncc(Cl)c(Nc2ccccc2NS(C)(=O)=O)n1`: the pIC50 in the experiment on NCI-H2228 was 6.07; in the experiment on MCF7 it was less than 5.00; in the experiment on A549, less than 5.00; in the experiment on KARPAS-299, 6.18.
Consider `COc1cc(S(=O)(=O)Cc2ccco2)ccc1Nc1ncc(Cl)c(Nc2ccccc2NS(C)(=O)=O)n1`, for which the pIC50 with NCI-H2228 is 5.77; in the experiment with MCF7, less than 5.00; with A549 it was less than 5.00; in the experiment on KARPAS-299 it was 5.91.
Consider `COc1cc(NCc2ccc(CN3CCSCC3)o2)ccc1Nc1ncc(Cl)c(Nc2ccccc2NS(C)(=O)=O)n1`, for which the pIC50 with NCI-H2228 was 5.80; in the experiment with MCF7, less than 5.00; in the experiment with A549, less than 5.00; in the experiment with KARPAS-299, 5.99.
For `CCN1CCN(Cc2ccc(CSc3ccc(Nc4ncc(Cl)c(Nc5ccccc5NS(C)(=O)=O)n4)c(OC)c3)o2)CC1`, the pIC50 is 6.17 with NCI-H2228, less than 5.00 in the experiment on MCF7, less than 5.00 in the experiment on A549 and 6.55 in the experiment on KARPAS-299.
As for `COc1cc(OCc2ccco2)ccc1Nc1ncc(Cl)c(Nc2ccccc2NS(C)(=O)=O)n1`, the pIC50 is 5.80 in the experiment on NCI-H2228, less than 5.00 in the experiment with MCF7 and less than 5.00 in the experiment with A549.
`COc1cc(NCc2ccc(CN3CCN(C)CC3)o2)ccc1Nc1ncc(Cl)c(Nc2ccccc2NS(C)(=O)=O)n1`: the pIC50 is 6.32 in the experiment with NCI-H2228, less than 5.00 with MCF7, less than 5.00 with A549 and 6.44 with KARPAS-299.
For the molecule `COc1cc(NCc2ccco2)ccc1Nc1ncc(Cl)c(Nc2ccccc2NS(C)(=O)=O)n1`, the pIC50 is 5.80 in the experiment with NCI-H2228, less than 5.00 in the experiment on MCF7, less than 5.00 in the experiment on A549 and 6.01 in the experiment with KARPAS-299.
As for `CCN1CCN(Cc2ccc(CNc3ccc(Nc4ncc(Cl)c(Nc5ccccc5NS(C)(=O)=O)n4)c(OC)c3)o2)CC1`, the pIC50 in the experiment on NCI-H2228 was 6.14; in the experiment on MCF7, less than 5.00; in the experiment on A549, less than 5.00; in the experiment with KARPAS-299, 6.40.
With `COc1cc(SCc2ccc(CN3CCCCC3)o2)ccc1Nc1ncc(Cl)c(Nc2ccccc2NS(C)(=O)=O)n1`, the pIC50 was 6.30 in the experiment with NCI-H2228, less than 5.00 in the experiment with MCF7, 5.41 in the experiment with A549 and 6.46 in the experiment on KARPAS-299.
Consider `COc1cc(OCC2CCCO2)ccc1Nc1ncc(Cl)c(Nc2ccccc2NS(C)(=O)=O)n1` (centres undefined), for which the pIC50 in experiment [1] is less than 6.00; in [2], 8.68; in the experiment with NCI-H2228, 7.05; in the experiment with MCF7, less than 5.00; in experiment [3] it was 8.52; in experiment [4], 8.43. Moreover, the pIC50 in experiment [5] is 8.48; in the experiment with A549, less than 5.00; in the experiment on KARPAS-299 it was 6.72.
With `COc1cc(SCc2ccc(CN3CCC(C)CC3)o2)ccc1Nc1ncc(Cl)c(Nc2ccccc2NS(C)(=O)=O)n1`, the pIC50 in the experiment with NCI-H2228 is 6.70; with MCF7, less than 5.00; in the experiment with A549, less than 5.00; in the experiment with KARPAS-299, 6.92.
As to `COc1cc(NCC2CCCO2)ccc1Nc1ncc(Cl)c(Nc2ccccc2NS(C)(=O)=O)n1` (centres undefined), the pIC50 in experiment [1] is less than 6.00; in [2], 8.35; in the experiment on NCI-H2228 it was 6.85; with MCF7, less than 5.00; in [3], 8.49; in [4], 8.34. Also, the pIC50 in experiment [5] was 8.24; with A549 it was 6.10; in the experiment with KARPAS-299 it was 6.60.
As for `COc1cc(NCc2ccc(CN(C)C)o2)ccc1Nc1ncc(Cl)c(Nc2ccccc2NS(C)(=O)=O)n1`, the pIC50 is 6.28 with NCI-H2228, less than 5.00 with MCF7, 5.52 with A549 and 6.70 with KARPAS-299.
Regarding `CCN(CC)Cc1ccc(CNc2ccc(Nc3ncc(Cl)c(Nc4ccccc4NS(C)(=O)=O)n3)c(OC)c2)o1`, the pIC50 in the experiment on NCI-H2228 is 6.24; in the experiment on MCF7, less than 5.00; in the experiment on A549, 5.45; with KARPAS-299, 6.46.
On to `COc1cc(SCc2ccc(CN3CCOCC3)o2)ccc1Nc1ncc(Cl)c(Nc2ccccc2NS(C)(=O)=O)n1`, for which the pIC50 is 6.37 in the experiment with NCI-H2228, less than 5.00 with MCF7, 6.04 in the experiment on A549 and 6.82 with KARPAS-299.
For `COc1cc(NCc2ccc(CN3CCN(CCO)CC3)o2)ccc1Nc1ncc(Cl)c(Nc2ccccc2NS(C)(=O)=O)n1`, the pIC50 is 6.00 with NCI-H2228, less than 5.00 in the experiment on MCF7, less than 5.00 in the experiment with A549 and 6.06 in the experiment with KARPAS-299.
Regarding `COc1cc(NCc2ccc(CN3CCCC3)o2)ccc1Nc1ncc(Cl)c(Nc2ccccc2NS(C)(=O)=O)n1`, the pIC50 with NCI-H2228 was 6.38; with MCF7, less than 5.00; with A549 it was less than 5.00; with KARPAS-299 it was 6.46.
In the case of `COc1cc(SCc2ccc(CN3CCCC3)o2)ccc1Nc1ncc(Cl)c(Nc2ccccc2NS(C)(=O)=O)n1`, the pIC50 was less than 6.00 in experiment [1]; 8.41 in experiment [2]; 6.85 in the experiment with NCI-H2228; 5.55 with MCF7; 8.47 in experiment [3]; 8.38 in experiment [4]. For the same molecule, the negative-log IC50 (pIC50) in experiment [5] is 8.55; in the experiment with A549 it was less than 5.00; with KARPAS-299, 7.15.
Turning to `COc1cc(SCc2ccc(CN3CCN(C)CC3)o2)ccc1Nc1ncc(Cl)c(Nc2ccccc2NS(C)(=O)=O)n1`, the pIC50 with NCI-H2228 was 6.32; in the experiment with MCF7, less than 5.00; in the experiment on A549, less than 5.00; in the experiment with KARPAS-299, 6.85.
Regarding `COc1cc(SCc2ccc(CN3CCN(CCO)CC3)o2)ccc1Nc1ncc(Cl)c(Nc2ccccc2NS(C)(=O)=O)n1`, the negative-log IC50 (pIC50) in the experiment with NCI-H2228 was 6.09; with MCF7, less than 5.00; with A549 it was less than 5.00; in the experiment with KARPAS-299, 6.29.
In the case of `COc1cc(S(=O)(=O)Cc2ccco2)ccc1Nc1ncc(Cl)c(Nc2ccccc2NC(C)=O)n1`, the pIC50 was 5.42 in the experiment on NCI-H2228, less than 5.00 in the experiment on MCF7, less than 5.00 in the experiment on A549 and 5.62 in the experiment on KARPAS-299.
With `COc1cc(SCc2ccco2)ccc1Nc1ncc(Cl)c(Nc2ccccc2NS(C)(=O)=O)n1`, the negative logarithm of the IC50 (pIC50) was 5.87 with NCI-H2228, less than 5.00 with MCF7, less than 5.00 with A549 and 6.09 in the experiment with KARPAS-299.
